In patent US6004952A, “Micacocidin derivatives” (Shinogi & Co., Ltd., priority 1996, dated 1999):
≈ marks a conversion by molar mass, not a printed value. Read-outs that look alike come from different tables or passages of the source.

Tests used:
Eimeria tenella = experiment: Growth inhibition activities to avian coccidium in primary chicken kidney cells; format: cell-based; conditions: for minimal effective concentration: Eimeria tenella
Experimental: The kidneys of SPF new born chicken was sterilely removed, which was treated with trypsin and the resultant primary kidney cells were cultured in 24-well plate. Monolayer culture after cultured for 3 days was treated simultaneously with compounds adjusted to predetermined concentration and sporozoit obtained by artificial excystation, which was cultured a 40° C. Premature and mature schizonts were observed under microscope, and the growth inhibition activities (suppression rate) for each treatment group were calculated at a proportion of the number of schizonts for the sporozoit-inoculated, compound-untreated control group (100%).

M. hyopneumoniae = experiment: MIC, liquid dilution method, Mycoplasma hyopneumoniae; conditions: Mesomycoplasma hyopneumoniae
mice spleen cells [1] = experiment: Suppression of reaction of mice spleen cells to lypopolysaccaride (LPS), in vitro (MTT); format: cell-based, BDF1 mice; conditions: for inhibition at 0.312 µg/mL: 312 ng/ml; for inhibition at 0.625 µg/mL: 625 ng/ml
Experimental: (§1) To each well of 96 well microtiter plate were added 5×10^5 spleen cells of BDF1 mice suspended in 0.1 ml of RPMI 1640 medium supplemented with 10% bovine fetus serum (supplemented with 2 mM sodium hydrogen carbonate, 50 Units/ml of penicillin, 50 μg/ml of streptomycin, and 5×10^-5 M of 2-mercaptoethanol), and then, 5 μg/ml of Concanavalin A (Con A) or 10 μg/ml of lypopolysaccaride (LPS) and various concentrations of test substance, of which final volume was adjusted to 0.2 ml. Test substances were dissolved in dimethylsulfoxide (DMSO), diluted with RPMI 1640 stated above, and added to the wells so that final concentration of the substances becomes less than 10000 ng/ml. The 96-well microtiter plates were cultured at 37° C. for 3 days in an incubator which was maintained at the humidity of 100%, 5% of carbon dioxide and 95% of air. After cultivation is completed, […] of 6 mg/ml solution of MTT {3-(4,5-dimethylthiazol-2yl)-2,5 diphenyltetrazoliumbromide} (Sigma) is added to each well, which is cultured at 37° C. for […] under the same conditions. After cultivation is completed, formazan formed is dissolved by adding 50 μl of a solution of 20% dodecyl sodium sulfonate (SDS) in 0.02N hydrochloric acid and kept standing at 37° C. for 24 hours. The absorbance (OD) of the formazan which was produced in proportion to the number of alive cells, was determined by using immunoreader equipped with 570 nm filter (see The Journal of Immunological Methods, Vol.65, 55-63, 1983).
(§2) Cell growth inhibition rate and IC50 value were calculated according to the correlation between the concentration and the absorbance for each substance.

Clostridium perfringens = experiment: microbe, parasite or virus in culture; format: cell-based, C. perfringens ATCC 13124; conditions: for MIC: Clostridium perfringens, ATCC13124
Serpulina hyodysenteriae = experiment: MIC, agar dilution method, anaerobic, Serpulina hyodysenteriae; format: cell-based, S. hyodysenteriae ATCC 27164; conditions: for MIC: Brachyspira hyodysenteriae, ATCC27164
S. aureus = experiment: MIC, agar dilution method, S. aureus; format: cell-based; conditions: Staphylococcus aureus, FDA209P; S. aureus FDA 209P
mice spleen cells [2] = experiment: Suppression of reaction of mice spleen cells to Concanavalin A, in vitro (MTT); format: cell-based, BDF1 mice; conditions: for inhibition at 0.312 µg/mL: 312 ng/ml; for inhibition at 0.625 µg/mL: 625 ng/ml
Experimental: as §1, §2

Mycoplasma = experiment: MIC to Mycoplasmas (summary in words); format: cell-based
M. pneumoniae = experiment: MIC, liquid dilution method, Mycoplasma pneumoniae; conditions: Mycoplasmoides pneumoniae
[3] = Cytotoxicity to primary chicken kidney culture cells; format: cell-based; conditions: primary chicken kidney cells
[4] = tested on: primary kidney culture cells; experiment: as above; format: cell-based; conditions: at the same concentration
M. gallisepticum [5] = experiment: MIC, liquid dilution method, Mycoplasma gallisepticum; conditions: Mycoplasmoides gallisepticum
Branhamella catarrhalis = experiment: MIC, Branhamella catarrhalis; format: cell-based; conditions: Moraxella catarrhalis; B. catarrhalis A 25238
Experimental: Thus, sensitivity-disc medium (Nissui) was used as a sensitivity determination medium, to which about 1 μl of 10^6 CFU/ml of the bacterial suspension was inoculated.

C. trachmatis = experiment: MIC, C. trachmatis; format: cell-based; conditions: C. trachmatis D/UW-3/CX
Candida albicans = experiment: Antifungal activity, micro-liquid dilution method, Candida albicans; format: cell-based, Candida albicans strain Ca-15; conditions: 30° C.; for Antifungal activities: IC50: 24 hours; for IC50: Candida albicans, 24 h, read-out: Antifungal activities: IC50
Experimental: (§3) Antifungal activities of the compounds to Candida albicans (strain Ca-15) and Asperilhm fumigatus (strain MA), representative pathogenic fungi, were determined by micro-liquid dilution method using 96-well microplates. A fungal suspension stored under freezing was adjusted to 1×1 O^5 CFU/ml by medium, of which 100 μl portions were charged into each well. The compound of the present invention was dissolved in dimethylsulfoxide (DMSO). Using the resultant solution, 2-fold dilution series were prepared together with the fungal suspension charged into the wells. YNB medium and RPMI medium were used. After cultured for 24 hours at 30° C., evaluation was performed by detecting the turbidity (wave length: 595 nm) using microplate reader.

E. avium = experiment: MIC, agar dilution method, E. avium; conditions: Enterococcus avium
Aspergillus fumigatus = experiment: Antifungal activity, micro-liquid dilution method, Aspergillus fumigatus; format: cell-based, Aspergillus fumigatus strain MA; conditions: 30° C.; for Antifungal activities: IC50: 24 hours; for IC50: Aspergillus fumigatus, 24 h, read-out: Antifungal activities: IC50
Experimental: as §3

M. gallisepticum [6] = experiment: In vivo evaluation test for M. gallisepticum in chickens (air-sac lesions); conditions: 6 chickens tested
[7] = more than 80% of suppression rate regarded as effective, read-out: Effective dose (growth inhibition)
[8] = read-out: Concentrations showing growth inhibition effects
[9] = Mus musculus, 72 h, LPS, read-out: Suppression rate
[10] = Mus musculus, 72 h, Con A, read-out: Suppression rate

CCCCCc1cccc(OC)c1C1=NC(C2SCC(C(O)C(C)(C)C3=NC(C)(C(=O)O)CS3)N2C)CS1 (stereo not drawn) [Compound 7]
growth inhibition activities (Eimeria tenella): strong growth inhibition activities
minimal effective concentration (Eimeria tenella; [7]): 0.156 µg/mL
minimal effective concentration (Eimeria tenella; [8]): 156 µg/mL
MIC (M. hyopneumoniae): 0.1 µg/mL (≈ 0.172 µM)
suppression of the reaction to LPS of spleen cells (mice spleen cells [1]): suppressed
inhibition at 0.039 µg/mL (mice spleen cells [1]; Mus musculus, 72 h, LPS, 39 ng/ml, read-out: Suppression rate): 17.2%
inhibition at 0.078 µg/mL (mice spleen cells [1]; Mus musculus, 72 h, LPS, 78 ng/ml, read-out: Suppression rate): 42.5%
inhibition at 0.156 µg/mL (mice spleen cells [1]; Mus musculus, 72 h, LPS, 156 ng/ml, read-out: Suppression rate): 80%
inhibition at 0.312 µg/mL (mice spleen cells [1]; [9]): 98.6%
inhibition at 0.625 µg/mL (mice spleen cells [1]; [9]): 102%
IC50 (mice spleen cells [1]; Mus musculus, LPS): 0.084 µg/mL (≈ 0.145 µM)
activity to Clostridium perflingens (Clostridium perfringens): showed the activity
MIC (Clostridium perfringens): 0.1 µg/mL (≈ 0.172 µM)
activity to Serpulina (Treponema) hyodysenteriae (Serpulina hyodysenteriae): showed the activity
MIC (Serpulina hyodysenteriae): 1.56 µg/mL (≈ 2.69 µM)
MIC (S. aureus): 1.56 µg/mL (≈ 2.69 µM)
suppression of the reaction to Con A of spleen cells (mice spleen cells [2]): suppressed
inhibition at 0.039 µg/mL (mice spleen cells [2]; Mus musculus, 72 h, Con A, 39 ng/ml, read-out: Suppression rate): 10%
inhibition at 0.078 µg/mL (mice spleen cells [2]; Mus musculus, 72 h, Con A, 78 ng/ml, read-out: Suppression rate): 16.5%
inhibition at 0.156 µg/mL (mice spleen cells [2]; Mus musculus, 72 h, Con A, 156 ng/ml, read-out: Suppression rate): 60.7%
inhibition at 0.312 µg/mL (mice spleen cells [2]; [10]): 98%
inhibition at 0.625 µg/mL (mice spleen cells [2]; [10]): 101%
IC50 (mice spleen cells [2]; Mus musculus, Con A): 0.129 µg/mL (≈ 0.222 µM)
MICs to Mycoplasmas (Mycoplasma): low MICs
MIC (M. pneumoniae): 0.1 µg/mL (≈ 0.172 µM)
MCC [3]: 10 µg/mL
cytotoxicity to the primary kidney culture cells [4]: did not show any cytotoxicity
MIC (M. gallisepticum [5]): 1.56 µg/mL (≈ 2.69 µM)

CCCCCc1cccc(O)c1C1=NC(C2SCC(C(O)C(C)(C)C3=NC(C)(C(=O)O)CS3)N2C)CS1 (stereo not drawn) [Compound 9]
MIC (Branhamella catarrhalis): 3.13 µg/mL (≈ 5.53 µM)
MIC (C. trachmatis): 16 µg/mL (≈ 28.3 µM)
MIC (M. hyopneumoniae): 0.025 µg/mL (≈ 0.0442 µM)
Antifungal activities: IC50 (Candida albicans; RPMI medium): 1.6 µg/mL
Antifungal activities: IC50 (Candida albicans; YNB medium): 6.3 µg/mL
MIC (E. avium): 1.56 µg/mL (≈ 2.76 µM)
Antifungal activities: IC50 (Aspergillus fumigatus; RPMI medium): 0.2 µg/mL
Antifungal activities: IC50 (Aspergillus fumigatus; YNB medium): 3.2 µg/mL
air-sac lesions (the number of chickens): (+) slight (M. gallisepticum [6]; 25 mg/kg × 1, orally): 0
air-sac lesions (the number of chickens): (++-+++) moderate to severe (M. gallisepticum [6]; 25 mg/kg × 1, orally): 2
air-sac lesions (the number of chickens): (-) non (M. gallisepticum [6]; 25 mg/kg × 1, orally): 4
number of chickens having lesions (M. gallisepticum [6]; 25 mg/kg × 1, orally): 2
air-sac lesions (the number of chickens): (+) slight (M. gallisepticum [6]; 50 mg/kg × 1, orally): 1
air-sac lesions (the number of chickens): (++-+++) moderate to severe (M. gallisepticum [6]; 50 mg/kg × 1, orally): 1
air-sac lesions (the number of chickens): (-) non (M. gallisepticum [6]; 50 mg/kg × 1, orally): 4
number of chickens having lesions (M. gallisepticum [6]; 50 mg/kg × 1, orally): 2
air-sac lesions (the number of chickens): (+) slight (M. gallisepticum [6]; 100 mg/kg × 1, orally): 0
air-sac lesions (the number of chickens): (++-+++) moderate to severe (M. gallisepticum [6]; 100 mg/kg × 1, orally): 1
air-sac lesions (the number of chickens): (-) non (M. gallisepticum [6]; 100 mg/kg × 1, orally): 5
number of chickens having lesions (M. gallisepticum [6]; 100 mg/kg × 1, orally): 1
MIC (M. pneumoniae): 0.00625 µg/mL (≈ 0.011 µM)
MIC (M. gallisepticum [5]): 0.2 µg/mL (≈ 0.353 µM)

CCCCCc1cccc(O)c1C1=NC(C2SCC(C(OCOC)C(C)(C)C3=NC(C)(C(=O)OCOC)CS3)N2C)CS1 (stereo not drawn) [Compound 19]
growth inhibition activities (Eimeria tenella): strong growth inhibition activities
minimal effective concentration (Eimeria tenella; [7]): 0.156 µg/mL
minimal effective concentration (Eimeria tenella; [8]): 156 µg/mL
MIC (M. hyopneumoniae): 1.56 µg/mL (≈ 2.39 µM)
MIC (M. pneumoniae): 0.39 µg/mL (≈ 0.596 µM)
MCC [3]: 10 µg/mL
cytotoxicity to the primary kidney culture cells [4]: did not show any cytotoxicity
MIC (M. gallisepticum [5]): 6.25 µg/mL (≈ 9.56 µM)

CCCCCc1cccc(O)c1C1=NC(C2SCC(C(O)C(C)(C)C3=NC(C)(C(=O)OCOC)CS3)N2C)CS1 (stereo not drawn) [Compound 20]
minimal effective concentration (Eimeria tenella; [7]): 0.625 µg/mL
MIC (M. hyopneumoniae): 0.025 µg/mL (≈ 0.041 µM)
suppression of the reaction to LPS of spleen cells (mice spleen cells [1]): suppressed
inhibition at 0.312 µg/mL (mice spleen cells [1]; [9]): 2.1%
inhibition at 0.625 µg/mL (mice spleen cells [1]; [9]): 98.8%
inhibition at 1.25 µg/mL (mice spleen cells [1]; Mus musculus, 72 h, LPS, 1250 ng/ml, read-out: Suppression rate): 98.2%
inhibition at 2.5 µg/mL (mice spleen cells [1]; Mus musculus, 72 h, LPS, 2500 ng/ml, read-out: Suppression rate): 96.3%
IC50 (mice spleen cells [1]; Mus musculus, LPS): 0.38 µg/mL (≈ 0.623 µM)
activity to Clostridium perflingens (Clostridium perfringens): showed the activity
MIC (Clostridium perfringens): 3.13 µg/mL (≈ 5.13 µM)
activity to Serpulina (Treponema) hyodysenteriae (Serpulina hyodysenteriae): showed the activity
MIC (Serpulina hyodysenteriae): 1.56 µg/mL (≈ 2.56 µM)
IC50 (Candida albicans; RPMI medium): 3.2 µg/mL (≈ 5.25 µM)
IC50 (Candida albicans; YNB medium): > 100 µg/mL
suppression of the reaction to Con A of spleen cells (mice spleen cells [2]): suppressed
inhibition at 0.312 µg/mL (mice spleen cells [2]; [10]): 0%
inhibition at 0.625 µg/mL (mice spleen cells [2]; [10]): 102%
inhibition at 1.25 µg/mL (mice spleen cells [2]; Mus musculus, 72 h, Con A, 1250 ng/ml, read-out: Suppression rate): 101%
inhibition at 2.5 µg/mL (mice spleen cells [2]; Mus musculus, 72 h, Con A, 2500 ng/ml, read-out: Suppression rate): 101%
IC50 (mice spleen cells [2]; Mus musculus, Con A): 0.506 µg/mL (≈ 0.83 µM)
MICs to Mycoplasmas (Mycoplasma): low MICs
IC50 (Aspergillus fumigatus; RPMI medium): > 100 µg/mL
IC50 (Aspergillus fumigatus; YNB medium): > 100 µg/mL
MIC (M. pneumoniae): ≤ 0.00625 µg/mL
MCC [3]: > 10 µg/mL
MIC (M. gallisepticum [5]): 0.1 µg/mL (≈ 0.164 µM)
